Test results from US4168206A, “Impregnated disk method for testing antifungal susceptibility” (Philadelphia College of Osteopathic Medicine, priority 1977, dated 1979).
Converted amounts (≈) assume the structure as drawn. Read-outs that look alike come from different tables or passages of the source.

Tests used:
Assay type in all cases: cell-based
Torulopsis glabrata [1] = assay: MIC by broth dilution method, Torulopsis glabrata; details: Nakaseomyces glabratus, read-out: Minimum Inhibitory Concentration, Broth
Excerpt: (§1) The preparation of the nutrient media, the antifungal agents and the fungi to be tested in the present invention are similar to those reported in S. Shadomy and A. Espinel-Ingroff, "Susceptibility Testing Of Antifungal Agents", Ch. 63, pp. 569-574 in E. H. Lennett, E. H. Spaulding, and J. P. Truant, Eds., Manual Of Clinical Microbiology, 2nd Ed., American Society for Microbiology, Washington, D.C. (1974). This publication describes the susceptibility testing of antifungal agents, namely, amphotericin B, nystatin and 5-fluoro-cytosine (5-FC), by the "broth dilution method" and the "semisolid agar dilution method". At pages 570-571, it is stated:
(§2) In 10 duplicate runs with each strain tested, the variation in minimum inhibitory concentration averaged ±0.05 μg/ml.
(§3) *Broth dilution method conducted in accordance with S. Shadomy and E.
(§4) Espinel-Ingroff, "Susceptibility Testing of Antifungal Agents", Ch. 63,
(§5) pp. 569-574 in E. H. Spaulding and J. P. Truant, Eds., Manual Of Clinical
(§6) Microbiology, 2nd Ed., American Society for Microbiology, Washington, […]

Candida albicans [2] = assay: MIC by broth dilution method, Candida albicans; details: Candida albicans
Excerpt: as §1, §2, §3, §4, §5, §6

Candida albicans [3] = assay: Susceptibility to combination of antifungal agents on disks (Example 2); details: Candida albicans isolate
Excerpt: The method of the present invention also may be used to test combinations of antifungal agents. In this method, more than one antifungal agent of known concentration is impregnated in each test disk.
Each disk is impregnated with a particular known concentration of at least one particular antifungal agent, except for the control disks. When the susceptibility of a fungus to combinations of antifungal agents is being tested, more than one antifungal agent is impregnated in each test disk.
The susceptibility of two other isolates to combinations of antifungal agents were tested by combining more than one antifungal agent on each test disk. A series of test disks were prepared containing various combinations of antifungal agents in various concentrations and were used in the method of the present invention. The results of this procedure are summarized in the following specific, non-limiting examples:
This is a significant reduction in amphotericin B.

C. parapsilosis = assay: MIC by impregnated disk method, Candida parapsilosis; details: Lodderomyces parapsilosis
Experimental: (§7) Stock solutions of the antifungal agents to be tested are preferably prepared by diluting the antifungal agents in the proper nutrient medium. It is presently preferred to prepare dilutions in 10 ml of the proper medium to give the following final concentrations when applied to the disks (all quantities in micrograms per milliliter): 0.05, 0.08, 0.09, 0.1; 0.1 increment increases to 0.9, 1.0; 0.5 increment increases to 10.0; and 12.0, 14.0, 20.0, 25.0 and 50.0. Disks have been prepared by placing 0.05 ml of the above dilutions of antifungal agent containing medium on 6.5 mm diameter disks in 0.01 or 0.02 ml increments. The impregnated disks are then allowed to dry at a temperature preferably below about 10° C. […] The disks may also be dried by a lyophilization or freeze drying process.
(§8) To perform the tests in accordance with the present inventions, disks impregnated with various concentrations of antifungal agent and nutrient medium and a control disk impregnated only with the corresponding nutrient medium are placed on the fungus to be tested which has been applied to the non-nutrient medium. The disks are the inoculated non-nutrient medium are then incubated at a suitable temperature for a sufficient time to promote growth of the fungus. Any temperature is suitable if it will promote growth of the fungus without adversely affecting the fungus or the activity of the antifungal agent or agents tested. The time of incubation can be determined by observing the extent of growth around the control disk. […] The zones of growth or inhibition around the disks were read at 6, 12, 24, 36 and 48 hours after the disks were placed on the tested fungus.
(§9) The minimum inhibitory concentration is defined as the lowest concentration of antifungal agent which inhibits visible growth. The disks containing concentrations of antifungal agents below the minimum inhibitory concentration show circumscribed growth of the fungus around the disk. Disks containing concentrations of antifungal agent at or above the minimum inhibitory concentration show no circumscribed growth.
(§10) Clinical isolates of various fungi listed in Table 1 were obtained from different patients diagnosed as having fungal infections. The fungal inocula were prepared by using a 24-48 hour cultures grown in yeast nitrogen base containing 1% glucose and 0.15% asparagine. After centrifuging, the supernatant was removed, the sedimented cells were washed twice with sterile distilled water and a cell suspension was adjusted to 80% transmission at 520 nm using a Beckman DB-GT grating spectrophotometer.
(§11) Sterile liquified 2% purified agar was placed in petri dishes and allowed to harden. The surface of the agar was inoculated with a sterile cotton swab saturated with a suspension of an organism. The uniformly swabbed plates were then allowed to dry.
(§12) Disks were prepared using the dilutions described above for amphotericin B, nystatin and 5-fluorocytosine. 0.05 ml of the dilutions of each antifungal agent diluted with the appropriate nutrient medium were pipetted on 6.5 mm diameter disks. The disks were dried at 4° C. after each application. Control disks were also prepared.
(§13) Several test disks and a control disk were placed in each petri dish containing the inoculated agar. The disks and petri dishes were then incubated at 29° C. and the minimum inhibitory concentration of the various concentrations of the antifungal agents were read at 6, 12, 24, 36 and 48 hours.
as §2

Cryptococcus neoformans = assay: MIC by broth dilution method, Cryptococcus neoformans; details: Cryptococcus neoformans
Excerpt: as §1, §2, §3, §4, §5, §6

Candida albicans [4] = assay: Minimum fungicidal concentration by disk method; details: 48 h
Experimental: Minimum fungicidal concentration is defined as the lowest concentration of antifungal agent from which subcultures were negative or where no overgrowth occurs. In tests of Candida albicans, the minimum inhibitory concentration can usually be determined at about 24 hours. Minimum fungicidal concentration may be determined by incubation for an additional 24 hours. At concentrations below the minimum fungicidal concentration, overgrowth occurs by 48 hours.
The minimal fungicidal concentrations of amphotericin B for the first 6 isolates of Candida albicans listed in Table 1 were determined by incubating the disks and organisms for 48 hours. At concentrations below the minimum fungicidal concentration, overgrowth occurred by 48 hours.

Torulopsis glabrata [5] = assay: MIC by impregnated disk method, Torulopsis glabrata; details: Nakaseomyces glabratus, read-out: Minimum Inhibitory Concentration, Disk
Experimental: as §7, §8
The minimum inhibitory concentration is defined as the lowest concentration of antifungal agent which inhibits visible growth. […]
Several test disks and a control disk were placed in each petri dish containing the inoculated agar. The disks and petri dishes were then incubated at 29° C. and the minimum inhibitory concentration of the various concentrations of the antifungal agents were read at 6, 12, 24, 36 and 48 hours. […]

Candida albicans [6] = assay: MIC by impregnated disk method, Candida albicans; details: Candida albicans
Experimental: as §7, §8, §9, §10, §11, §12, §13, §2

C[C@@H]1[C@H](O)[C@@H](C)/C=C/C=C/C=C/C=C/C=C/C=C/C=C/[C@H](O[C@@H]2O[C@H](C)[C@@H](O)[C@H](N)[C@@H]2O)C[C@@H]2O[C@](O)(C[C@@H](O)C[C@@H](O)[C@H](O)CC[C@@H](O)C[C@@H](O)CC(=O)O[C@H]1C)C[C@H](O)[C@H]2C(=O)O [Amphotericin B, amphotericin B]
MIC (Torulopsis glabrata [1]): 0.3 µg/mL (≈ 0.325 µM)
MIC (Candida albicans [2]; isolate 1, read-out: Minimum Inhibitory Concentration, Broth): 0.4 µg/mL (≈ 0.433 µM)
MIC (Candida albicans [2]; isolate 2, read-out: Minimum Inhibitory Concentration, Broth): 0.7 µg/mL (≈ 0.758 µM)
MIC (Candida albicans [2]; isolate 3, read-out: Minimum Inhibitory Concentration, Broth): 0.1 µg/mL (≈ 0.108 µM)
MIC (Candida albicans [2]; isolate 4, read-out: Minimum Inhibitory Concentration, Broth): 0.6 µg/mL (≈ 0.649 µM)
MIC (Candida albicans [2]; isolate 5, read-out: Minimum Inhibitory Concentration, Broth): 0.8 µg/mL (≈ 0.866 µM)
MIC (Candida albicans [2]; isolate 6, read-out: Minimum Inhibitory Concentration, Broth): 1.5 µg/mL (≈ 1.62 µM)
amphotericin B susceptibility (Candida albicans [3]; alone, previously tested): 0.8 µg/mL
amphotericin B susceptibility (Candida albicans [3]; in combination with tetracycline): 0.2 µg/mL
MIC (C. parapsilosis; read-out: Minimum Inhibitory Concentration, Disk, C. parapsilosis isolate 1): 0.5 µg/mL (≈ 0.541 µM)
MIC (C. parapsilosis; read-out: Minimum Inhibitory Concentration, Disk, C. parapsilosis isolate 2): 0.6 µg/mL (≈ 0.649 µM)
MIC (Cryptococcus neoformans; read-out: Minimum Inhibitory Concentration, Broth, C. neoformans isolate 2): 0.4 µg/mL (≈ 0.433 µM)
MIC (Cryptococcus neoformans; read-out: Minimum Inhibitory Concentration, Broth, C. neoformans isolate 3): 0.5 µg/mL (≈ 0.541 µM)
MIC (Cryptococcus neoformans; read-out: Minimum Inhibitory Concentration, Broth, Cryptococcus neoformans isolate 1): 0.5 µg/mL (≈ 0.541 µM)
MFC (Candida albicans [4]; isolate 3, read-out: Minimum Fungicidal Concentration, Disk): 0.9 µg/mL (≈ 0.974 µM)
MFC (Candida albicans [4]; isolate 4, read-out: Minimum Fungicidal Concentration, Disk): 0.9 µg/mL (≈ 0.974 µM)
MFC (Candida albicans [4]; isolate 6, read-out: Minimum Fungicidal Concentration, Disk): 5 µg/mL (≈ 5.41 µM)
MFC (Candida albicans [4]; read-out: Minimum Fungicidal Concentration, Disk, isolate 1): 1.4 µg/mL (≈ 1.52 µM)
MFC (Candida albicans [4]; read-out: Minimum Fungicidal Concentration, Disk, isolate 2): 1.6 µg/mL (≈ 1.73 µM)
MFC (Candida albicans [4]; read-out: Minimum Fungicidal Concentration, Disk, isolate 5): 1.8 µg/mL (≈ 1.95 µM)
MIC (Torulopsis glabrata [5]): 0.2 µg/mL (≈ 0.216 µM)
MIC (Candida albicans [6]; isolate 1, read-out: Minimum Inhibitory Concentration, Disk): 0.3 µg/mL (≈ 0.325 µM)
MIC (Candida albicans [6]; isolate 2, read-out: Minimum Inhibitory Concentration, Disk): 0.6 µg/mL (≈ 0.649 µM)
MIC (Candida albicans [6]; isolate 3, read-out: Minimum Inhibitory Concentration, Disk): 0.08 µg/mL (≈ 0.0866 µM)
MIC (Candida albicans [6]; isolate 4, read-out: Minimum Inhibitory Concentration, Disk): 0.6 µg/mL (≈ 0.649 µM)
MIC (Candida albicans [6]; isolate 5, read-out: Minimum Inhibitory Concentration, Disk): 0.9 µg/mL (≈ 0.974 µM)
MIC (Candida albicans [6]; isolate 6, read-out: Minimum Inhibitory Concentration, Disk): 1 µg/mL (≈ 1.08 µM)
